Consider one substance from US20230346769A1, “USE OF SIMPLE ACYCLIC POLYAMINES FOR THE TREATMENT OF DISEASES CAUSED BY PARASITES OF THE GENUS LEISHMANIA” (Universidad De Granada, priority 2020, published 2023).

Experiment [1] has as its system L. infantum promastigote forms. The experiment can be described thus: In vitro activity against extracellular (promastigote) forms. Type of experiment: cell-based, Leishmania infantum. The text has this:
(§1) Methodology: Cultures of three Leishmania species, representative of the species causing each of the clinical forms of the disease, were used for these studies. Specifically, strains MCAN/ES/2001/UCM-1 O of L.infantum, isolated and characterised in Madrid from an infected dog; MHOM/BR/1975/M2904 of L.braziliensis, isolated in Brazil in a human case, and LCR-L 133 LRC of L.donovani. isolated in Jerusalem, Israel from a case of kala-azar […] (WHO Technical Reports Series 949. Geneva: WHO. March. The cultures of parasites come from an own collection which was prepared from a biobank project (Biobank and Characterisation Unit of Strains and Species of Trypanosomatids, Responsible for Human, Animal and Plant Pathologies, Cgl-2008-03687-E/Bos.), and are available on request.
(§2) The promastigote forms of the three species studied were cultured in vitro in sterility in single-phase MTL culture medium (Medium Trypanosomes Liquid) made from Hank’s Balanced Salts (Sigma-Aldrich, H6136) enriched with 10% (v/v) of Fetal Bovine Serum (SBF-1) inactivated at 56° C./ 30 minutes. The parasite inoculum to initiate the culture was 5 × 10^4 cells/ml in 5 ml medium in 25 cm^2 Falcon® plastic flasks and kept in an oven at 28° C. The cultures were performed routinely, achieving exponential growth of the flagellates until obtaining the cell mass necessary for the subsequent studies. Both promastigote forms and amastigote forms were used to conduct the assays.
(§3) The promastigote forms of the three Leishmania strains, cultured in the manner described above, were harvested in their exponential growth phase by centrifugation at 400 g for 10 min. The number of parasites was counted in a Neubauer Haemocytometer Counting Chamber and were inoculated in a 24-well plate at a concentration of 5 ×10^4 parasites/well.
(§4) The compounds to be assayed were dissolved in DMSO at a concentration of 0.01% (v/v), concentration at which this solvent is not toxic nor has any effect on the growth of parasites. The compounds were added to the culture medium at final concentrations of 100, 50, 25 and 12.5 µM. […] M. et al. Med. Chem. 2011. 54. 970-979].

Experiment [2] deals with L. infantum amastigote forms. The experiment can be described thus: In vitro activity against intracellular (amastigote) forms in macrophages. Type of experiment: cell-based, Leishmania infantum.
Description: as §1
(§5) For the study of the in vitro effect on intracellular forms of Leishmania, the experimental model designed by the group of the present inventors was used [Sánchez-Moreno. M. et al. Med. Chem. 2012, 55, 9900-9913; Sánchez-Moreno. M. et al. J. Antimicrob. Chemother. 2012, 67, 387-397]. The macrophages were detached from the culture flask where they were attached by dry blows. To do this, it was incubated in cold for 5 minutes and after that the flask was hit with the palm of the hand until the cells were detached from the flask. Then, they were passed to a 25 ml capacity steriling conical bottom flask (Deltalab) to centrifuge them at 120 g for 5 minutes, removing the supernatant and were counted in Neubauer’s chamber. Cells were suspended in RPMI medium at a concentration of 1×10^4 cells/well, then cultured in 24-well plates into which a 12 mm round slide had previously been placed into each well. For adherence, the cells were left 24 h at 37° C. in 5% CO2. Subsequently, the cells were infected in vitro by placing Leishmania cells at the rate of 10 parasites/macrophage according to [Sánchez-Moreno. M et al. Med. Chem. 2011, 54, 970-979]. […] The products were allowed to act for 72 hours of incubation.
(§6) After that time, the crystals were removed and fixed with methanol on a slide and allowed to dry, after which DPX microscopy mounting medium (Panreac®) was added to it. Once the preparations had been mounted, they were dyed with Giemsa by diluting Azur-Eosin-Methylene Blue solution according to Giemsa DC (Code 251338) with Sorensen buffer (1:10 dilution). The preparations were covered and allowed to colour for 20 minutes, after which they were washed with distilled water and then allowed to drain and dry vertically. Finally, the amastigote forms were counted with the aim of immersion in a total of 200 cells.

For experiment [3], the system named is L. braziliensis promastigote forms. The experiment can be described thus: In vitro activity against extracellular (promastigote) forms. Type of experiment: cell-based, Leishmania braziliensis.
Description: as §1, §2, §3, §4

Experiment [4] has as its system L. braziliensis amastigote forms. The experiment can be described thus: In vitro activity against intracellular (amastigote) forms in macrophages. Type of experiment: cell-based, Leishmania braziliensis.
Description: as §1, §5, §6

The subject of experiment [5] is L. donovani promastigote forms. The experiment can be described thus: In vitro activity against extracellular (promastigote) forms. Type of experiment: cell-based, Leishmania donovani.
Description: as §1, §2, §3, §4

In experiment [6] the test system is L. donovani amastigote forms. Nature of the experiment: In vitro activity against intracellular (amastigote) forms in macrophages. Format: cell-based, Leishmania donovani.
Description: as §1, §5, §6

A further experiment has as its system J774.2 macrophages. The experiment can be described thus: Macrophage toxicity by flow cytometry. Format: cell-based. To be noted: J774.2 macrophages, 72 h of culture. On the procedure:
Macrophage toxicity: this study used the experimental model designed by the group of inventors [I. Ramírez-Macías. et. al. J. Antimicrob. Chemother. 2011, 66(4): 813-819] wherein flow cytometry is used. Briefly, macrophages from line J774.2 (ECACC number 91051511, obtained from a BALB/c female […] tumour in 1968) were deposited in a steriling tube and centrifuged at 120 g for 5 minutes. The supernatant was discarded and the cells were resuspended in MEM + Glutamine medium with 20% SBF (fetal bovine serum). 1×10^4 cells per well were then deposited from a 24-well titration plate and incubated for 24-48 h at 37° C. in a humid atmosphere enriched with 5% CO2 to fix them. […] After 72 h of incubation, the samples were prepared for reading on a flow cytometer. Specifically, 100 µl of propidium iodide solution (100 µg/ml) was added to each well and incubated for 10 min at 28° C. in the dark. Subsequently, 100 µl/well of fluorescein diacetate (FDA) (Sigma Chemical Co) in solution (100 ng/mL) was added and incubation was repeated under the same conditions for 10 minutes. Cells were recovered by centrifugation at 400 g for 10 minutes and washing the precipitate with PBS. Finally, the results were analysed in a FACS Vantage flow cytometer (Becton Dickinson) taking into account that the cells with the plasma membrane intact emit green colour as the esterases act on the FDA, while the cells that have lost the integrity of the membrane and are not viable, emit in the range close to 580 nm by penetrating the propidium iodide by passive diffusion and specifically binding to the nucleic acids thereof. Thus, to calculate the percentage of viability, the number of dead cells compared to controls was taken into account.
Background: In flow cytometry, cells or beads pass a laser one at a time.

The mark [7] stands for this setting: IC50 of macrophages / IC50 of parasite form.

The term IC50 denotes the concentration at which inhibition is half-maximal. Read a high IC50 as weaker potency in that assay.

Consider “meglumine antimoniate [Glucantime, reference compound]”, for which the IC50 in experiment [1] (72 h) was 18 ± 3.1 µM; in experiment [2] (72 h), 24.2 ± 2.6 µM; in experiment [3] (72 h), 18 ± 3.1 µM; in experiment [4] (72 h), 24.2 ± 2.6 µM; in experiment [5] (72 h) it was 18 ± 3.1 µM; in experiment [6] (72 h), 24.2 ± 2.6 µM. The half-inhibitory concentration (IC50) with J774.2 macrophages stood at 15.2 ± 1 µM. Moreover, the “Selectivity Index (SI) L. infantum Promastigote forms” value in experiment [1] (setting [7]) is listed as 0.8. In addition, in experiment [2] (setting [7]), the “Selectivity Index (SI) L. infantum Amastigote forms” value amounted to 0.6. In addition, in experiment [3] (setting [7]), the “Selectivity Index (SI) L. brazilensis Promastigote forms” value was determined as 0.6. In addition, the “Selectivity Index (SI) L. brazilensis Amastigote forms” value in experiment [4] (setting [7]) was found to be 0.6. Also, the “Selectivity Index (SI) L. donvovani Promastigote forms” value in experiment [5] (setting [7]) came to 0.7. In experiment [6] (setting [7]), the “Selectivity Index (SI) L. donvovani Amastigote forms” value came out at 0.6.
